# Measured values taken from patent US9950998B2, “Sulphated chelating agent” (priority 2012, dated 2018).
# Legend:
# Water solubility = assay type: physicochemical; details: for water solubility: synthesis example, isolated powder
# pH of 30% solution = assay type: physicochemical
# [1] = system: Escherichia coli ATCC 9637; experiment: Electron microscope (TEM and SEM) examination of cell membrane; assay type: cell-based; details: in contact with 0.05% and 1% THES at pH 7 (FIG. 5)
# Experimental: (§1) The ability of Tetra Hydroxy Ethyl Di Sulphate-Di Natrium (THES) as a Sulphate chelating agent to open/loosen the cell membrane was tested against two types of bacterias, ie: Staphylococcus aerus (gram positive) that has two cell membrane (the outer membrane as the outer cell wall and the inner membrane) and E. Colli (gram negative) that has three cell membranes. First, the Minimum Inhibitory Concentration (MIC) of each bacterias was determined, then the bacteria membrane alteration after contacting with THES were observed by Electron Microscope (TEM and SEM) with the THES concentration range below and above MIC. Antibacterial activity was tested using disc-diffusion method by checking the clear zone from the paper disc inhibition that contains THES. The growth curve were made by means examining the bacterial culture on the broth media.
# (§2) Staphylococcus aerus ATCC 6538, Escherichia coli ATCC 9637 were supplied from Chemotherapy Laboratory of Pharmaceutical Department, Bandung Institute of Technology (ITB).
# (§3) • 1. […] The turbidity of the cultured medium then will be measured every 30 minutes until 270 minutes with spectrophotometer. • 4. […] The polymerization product as hardened capsules then are ready to be sliced. • e) Making of semi thin and ultra thin slices. • Slices of microbe sample were made by utilizing automatic ultra microtom. […]
# [2] = system: Staphylococcus Aerus ATCC 6538; experiment: as above; assay type: cell-based; details: in contact with 0.05% and 1% THES at pH 7 (FIG. 4)
# Experimental: as §1, §2, §3
# Staphylococcus Aerus = experiment: Biocide effication plate test, Staphylococcus Aerus; assay type: cell-based; details: biocide dosing 0.025%
# Acinetobacter Anitratus = experiment: Antibacterial activity MIC; assay type: cell-based; details: pH 7-7.5, sample 30% in aqueous solution
# Experimental: as §1
# (§4) • 1. Bacteria preparation • The testing bacterias were growth on the aqueous medium and incubated for 24 hours at 37° C. • 2. […] This gradual concentration variation is necessary to determine MIC (Minimum Inhibitory Concentration) and the bacteriostatic/bactericidal properties of the tested Biocide. • 3. Determination of Killing method (bacteriostatic and bactericidal properties) • The testing was done on the aqueous medium contains the tested substance with the concentration 5, 10 and 20%. The turbidity of the cultured medium then will be measured every 30 minutes until 270 minutes with spectrophotometer. • 4. Preparation of microbe cells for electron microscope examination • Staphylococcus aereus and Escherichia coli were growth on the aqueous medium within 24 hours, then mixed with tetra hydroxy ethyl di sulphate di sodium (THES) with the final concentration 0.6; 5 and 10%. This system mixtures then was placed under vibrating incubator for several hours. Microbe cells then were separated and washed, first with NaCl 0.9% then with distilled water. Cells then were utilized for the preparation of electron microscope testing. • 5. Preparation for Scanning Electron Microscope (SEM) examination • Bacteria cells were suspended into 4% collodion. The said suspensions then were fixed on some metal disc and were coated with the gold powder. Then were examined with electron microscope and pictured. • 6. Preparation for Transmittance Electron Microscope (TEM) examination • a) The prepared microbes in (5) were fixed into a mixture of formaldehyde 2% and glutaraldehyde 0.5% for 2 hours at 4° C. • b) The above mixtures then was three times washed with pH 7 phosphate buffer, then were diluted into bovin serum albumin (BSA) 1/5 for embedded preparation, while leave glutaraldehyde hardening at room temperature. • c) After leaving dehydrated in alcohol, the white LR resin then will be infiltrated. • d) Embedded process were done at white LR resin following by polymerization process at 60° C. for 48 hours time. The polymerization product as hardened capsules then are ready to be sliced. • e) Making of semi thin and ultra thin slices. • Slices of microbe sample were made by utilizing automatic ultra microtom. To get the precised and accurate slices of sample, semi thin slice were made and coloured with blue toluidine then were examined under the visible microscope. When the right slices were obtained, ultra thin slices were prepared and were made contrast with uranil acetate and lead citrate. The dried ultra thin slices then can be examined with Transmittance Electron Microscope. Testing Results Minimum Inhibitory Concentration (MIC)
# (§5) The test done on the pH range of 7-7.5 with the sample of Tetra Hydroxy Ethyl Di Sulphate-Di Natrium (THES-Di Natrium) 30% in aqueous solution.
# Salmonella Typhii = experiment: Antibacterial activity MIC; assay type: cell-based; details: pH 7-7.5, sample 30% in aqueous solution
# Experimental: as §1, §4, §5
# [3] = system: Escherichia Coli ATCC 25922; experiment: Antibacterial activity MIC; assay type: cell-based; details: pH 7-7.5, sample 30% in aqueous solution
# Experimental: as §1, §4, §5
# Klebsiella Pneumoniae = experiment: Antibacterial activity MIC; assay type: cell-based; details: pH 7-7.5, sample 30% in aqueous solution
# Experimental: as §1, §4, §5
# [4] = system: Bacillus Subtilis ATCC 6633; experiment: Antibacterial activity MIC; assay type: cell-based; details: pH 7-7.5, sample 30% in aqueous solution
# Experimental: as §1, §4, §5
# [5] = system: Staphylococcus Epidermidis ATCC 12228; experiment: Antibacterial activity MIC; assay type: cell-based; details: pH 7-7.5, sample 30% in aqueous solution
# Experimental: as §1, §4, §5
# [6] = system: Pseudomonas Aeruginosa ATCC 27853; experiment: Antibacterial activity MIC; assay type: cell-based; details: pH 7-7.5, sample 30% in aqueous solution
# Experimental: as §1, §4, §5
# [7] = system: Staphylococcus Aerus ATCC 6538; experiment: Antibacterial activity MIC; assay type: cell-based; details: pH 7-7.5, sample 30% in aqueous solution
# Experimental: as §1, §4, §5
# Candida Albicans = experiment: Antifungal activity MIC; assay type: cell-based; details: pH 7-7.5, sample 30% in aqueous solution
# Experimental: as §1
# as §3, with “1. Bacteria preparation • The testing bacterias were growth on the aqueous medium and incubated for 24 hours at 37° C. • 2.” for “1.”
# Aspergillus Niger = experiment: Antifungal activity MIC; assay type: cell-based; details: pH 7-7.5, sample 30% in aqueous solution
# Experimental: as §1
# as §3, with “1. Bacteria preparation • The testing bacterias were growth on the aqueous medium and incubated for 24 hours at 37° C. • 2.” for “1.”
# E. Coli = experiment: Biocide effication plate test, E. Coli; assay type: cell-based; details: for Total Plate Count: Blanco 3900
# [8] = system: Total Plate Count Microorganism; experiment: Biocide effication plate test, total plate count microorganism; assay type: cell-based; details: for Total Plate Count: Blanco/Control 2400
compound,measurement,setting,value
"O=S(=O)(O)OC(OS(=O)(=O)O)(OS(=O)(=O)O)C(OS(=O)(=O)O)(OS(=O)(=O)O)OS(=O)(=O)O [EHS, Ethyl Hexa Sulphate acid (EHS)]",Solubility @ 25° C.,Water solubility,48%
same,water solubility,Water solubility,48%
same,pH of 30% solution,pH of 30% solution,0.0
O=S(=O)([O-])OC(O)(O)C(O)(O)OS(=O)(=O)[O-].[Na+].[Na+] [THES-di Natrium],"transversal section (TEM) of cell, cell membrane alteration",[1],also experienced the said internal cell liquid lysis out of its cell wall membrane layers
same,"transversal section (TEM) of cell, cell membrane alteration",[2],partly empty cells that has already lost its cytoplasm liquid due to lysis out of cell wall membrane
same,Killing efficiency,Staphylococcus Aerus,69.8
same,Total Plate Count,Staphylococcus Aerus; Blanco 980,296 Colony/ml
same,Minimum Inhibitory Concentration (MIC),Acinetobacter Anitratus,0.115%
same,Minimum Inhibitory Concentration (MIC),Salmonella Typhii,0.115%
same,Minimum Inhibitory Concentration (MIC),[3],0.234%
same,Minimum Inhibitory Concentration (MIC),Klebsiella Pneumoniae,0.234%
same,Minimum Inhibitory Concentration (MIC),[4],0.234%
same,Minimum Inhibitory Concentration (MIC),[5],0.234%
same,Minimum Inhibitory Concentration (MIC),[6],0.115%
same,Minimum Inhibitory Concentration (MIC),[7],0.234%
same,Minimum Inhibitory Concentration (MIC),Candida Albicans,0.469%
same,Minimum Inhibitory Concentration (MIC),Aspergillus Niger,0.937%
same,Killing efficiency,E. Coli; biocide dosing 0.025%,48.5
same,Total Plate Count,E. Coli; biocide dosing 0.025%,2010 Colony/ml
same,Killing efficiency,E. Coli; biocide dosing 0.05%,70.5
same,Total Plate Count,E. Coli; biocide dosing 0.05%,1150 Colony/ml
same,Killing efficiency,E. Coli; biocide dosing 0.1%,73.1
same,Total Plate Count,E. Coli; biocide dosing 0.1%,1050 Colony/ml
same,Killing efficiency,E. Coli; biocide dosing 0.5%,75.1
same,Total Plate Count,E. Coli; biocide dosing 0.5%,970 Colony/ml
same,Killing efficiency,E. Coli; biocide dosing 1.0%,81.5
same,Total Plate Count,E. Coli; biocide dosing 1.0%,720 Colony/ml
same,Killing efficiency,E. Coli; biocide dosing 5.0%,83.8
same,Total Plate Count,E. Coli; biocide dosing 5.0%,630 Colony/ml
same,Solubility @ 25° C.,Water solubility,31.5%
same,water solubility,Water solubility,31%
same,pH of 30% solution,pH of 30% solution,0.5-1.5
same,Killing efficiency,[8]; biocide dosing 0.05%,94.5
same,Total Plate Count,[8]; biocide dosing 0.05%,132 Colony/ml
same,Killing efficiency,[8]; biocide dosing 0.1%,95.2
same,Total Plate Count,[8]; biocide dosing 0.1%,115 Colony/ml
same,Killing efficiency,[8]; biocide dosing 0.5%,95.8
same,Total Plate Count,[8]; biocide dosing 0.5%,101 Colony/ml
same,Killing efficiency,[8]; biocide dosing 1.0%,96.7
same,Total Plate Count,[8]; biocide dosing 1.0%,80 Colony/ml
"O=S(=O)([O-])OC(O)C(O)(OS(=O)(=O)[O-])C(O)(OS(=O)(=O)[O-])C(O)OS(=O)(=O)[O-].[Na+].[Na+].[Na+].[Na+] (stereo not shown) [Tetra Hydroxy Butyl 1,2,3,4 Tetra Sulphate Tetra Natrium]",Solubility @ 25° C.,Water solubility,27.3%
same,pH of 30% solution,pH of 30% solution,0.0-1.0
"O=S(=O)(O)OC(O)C(O)(OS(=O)(=O)O)C(O)(OS(=O)(=O)O)C(O)OS(=O)(=O)O (stereo not shown) [Tetra Hydroxy Butyl 1,2,3,4 Tetra Sulphate]",Solubility @ 25° C.,Water solubility,39.6%
same,pH of 30% solution,pH of 30% solution,<0.0
O=S(=O)(O)OC(O)(O)C(O)(O)OS(=O)(=O)O [Tetra Hydroxy Ethyl Di Sulphate],Solubility @ 25° C.,Water solubility,48.0%
same,water solubility,Water solubility,48%
same,pH of 30% solution,pH of 30% solution,<0.5
"O=S(=O)([O-])OOC(O)C(O)(OS(=O)(=O)[O-])C(C(O)OS(=O)(=O)[O-])C(O)OS(=O)(=O)[O-].[Na+].[Na+].[Na+].[Na+] (stereo not shown) [Tetra Hydroxy Isoamyl 1,2,3,4-Tetra Sulphate Tetra Natrium]",Solubility @ 25° C.,Water solubility,40.1%
same,pH of 30% solution,pH of 30% solution,0.0-0.5
"O=S(=O)(O)OOC(O)C(O)(OS(=O)(=O)O)C(C(O)OS(=O)(=O)O)C(O)OS(=O)(=O)O (stereo not shown) [Tetra Hydroxy Isoamyl 1,2,3,4-Tetra Sulphate]",Solubility @ 25° C.,Water solubility,61.2%
same,pH of 30% solution,pH of 30% solution,<0
"O=S(=O)([O-])OC(O)C(C(O)OS(=O)(=O)[O-])C(O)OS(=O)(=O)[O-].[Na+].[Na+].[Na+] (stereo not shown) [Tri Hydroxy Isobutyl 1,2,3-Tri Sulphate Tri Natrium]",Solubility @ 25° C.,Water solubility,36.2%
same,pH of 30% solution,pH of 30% solution,0.0-1.0
"O=S(=O)(O)OC(O)C(C(O)OS(=O)(=O)O)C(O)OS(=O)(=O)O (stereo not shown) [Tri Hydroxy Isobutyl 1,2,3-Tri Sulphate]",Solubility @ 25° C.,Water solubility,56.7%
same,pH of 30% solution,pH of 30% solution,<0.0
